This note sets out measurements from patent US9957274B2, “Indane inhibitors of EED and methods of their use” (AbbVie Inc., priority 2016, dated 2018).

pIC50: −log10 of the molar value.

The target in test [1] is EED (Homo sapiens, UniProt O75530). The test can be described thus: EED TR-FRET Binding Assay (modified LanthaScreen competition assay). The procedure, abridged: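 Competition binding in a modified LanthaScreen format, in 20 mM Tris-HCl pH 7.5, 200 mM NaCl, 0.01% Tween-20, 10 uM DTT and 0.05% BSA. Reactions ran 1 hour at 25° C before TR-FRET detection.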
Chain of EED (O75530 whole entry): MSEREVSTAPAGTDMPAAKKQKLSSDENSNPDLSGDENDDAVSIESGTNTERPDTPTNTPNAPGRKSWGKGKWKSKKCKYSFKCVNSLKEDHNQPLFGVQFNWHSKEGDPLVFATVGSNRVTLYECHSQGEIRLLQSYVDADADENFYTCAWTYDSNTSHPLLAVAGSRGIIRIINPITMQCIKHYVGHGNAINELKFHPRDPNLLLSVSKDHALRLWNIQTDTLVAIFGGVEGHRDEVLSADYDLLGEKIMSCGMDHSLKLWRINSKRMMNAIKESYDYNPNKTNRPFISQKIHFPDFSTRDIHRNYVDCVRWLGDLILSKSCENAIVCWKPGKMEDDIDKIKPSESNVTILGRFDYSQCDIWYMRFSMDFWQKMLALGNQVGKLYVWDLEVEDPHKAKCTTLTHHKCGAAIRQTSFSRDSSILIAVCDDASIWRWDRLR
On the technique in general: In TR-FRET formats the signal depends on donor and acceptor labels being close together.

The test system of test [2] is H3K27me3 in OCILY19 cells. The test can be described thus: H3K27me3 AlphaLISA assay in OCILY19 cells. Conditions: Homo sapiens, OCI-LY19, 144 h, 6 days with compound, read-out: OCILY-19 IC50. It is filed as cell-based. Here is the method:
(§1) 5,000 cells were plated into each well of 96-well Corning CellBing cell culture plates and incubated overnight at 37° C. in a humidified CO2 incubator. […] The cell culture plates were then incubated for 6 more days. H3K27me3 AlphaLISA assay was performed on the cell culture samples by using AlphaLISAR® H3K27me3 Cellular Detection Kit (PerkinElmer) and 96-well white half-area plates (PerkinElmer).

The subject of test [3] is H3K27me3 in G401 cells. The test can be described thus: H3K27me3 AlphaLISA assay in G401 cells. The test is classed as cell-based. Conditions: Homo sapiens, G-401, 144 h, 6 days with compound. On the procedure: as §1, with “G401 cells (ATCC catalog # CRL-1441) were maintained in McCoy's 5a medium (ATCC) supplemented with 10% heat-inactivated FBS (HyClone) at 37° C. in a humidified CO2 incubator. OCILY19 cells (DSMZ catalog #ACC 528) were maintained in IMDM (Invitrogen) supplemented with 10% human serum (Sigma) at 37° C. in a humidified CO2 incubator. 5,000” for “5,000”
A general note: In Alpha technology, singlet oxygen from a donor bead excites a nearby acceptor bead.

Test [4] has as its system Pfeiffer cells. The test can be described thus: CTG cell viability assay (CellTiter-Glo). The test is classed as cell-based. Conditions: Homo sapiens, 240 h; Pfeiffer cells, 10 days with compound, CellTiter-Glo; read-out: Cell Proliferation IC50. On the procedure:
1,000 cells were plated into each well of 96-well Corning CellBing cell culture plates and incubated overnight at 37° C. in a humidified CO2 incubator. […] The cell culture plates were then incubated for 10 more days. CTG cell viability assay was performed on the cell culture samples by using CellTiter-Glo® Luminescent Cell Viability Assay Kit (Promega).
A general note: In ATP-based viability assays light output follows the ATP content of the culture.

On to `COc1ccc([C@@H]2CN(C3CCc4cccc(F)c43)C[C@H]2N(C)C)cc1OC` (mixture of isomers) [Example 23, rac-(3S,4R)-4-(3,4-dimethoxyphenyl)-1-(7-fluoro-2,3-dihydro-1H-inden-1-yl)-N,N-dimethylpyrrolidin-3-amine], for which the pIC50 in test [1] was 8.57; in test [2], 6.41; in test [3], 6.70; in test [4], 6.04.

As to `CCS(=O)(=O)N1CCN(c2ccc([C@H]3CN(C4CCc5cccc(F)c54)C[C@@H]3N(C)C)cc2)CC1` (mixture of isomers) [Example 49, rac-(3R,4S)-4-{4-[4-(ethanesulfonyl)piperazin-1-yl]phenyl}-1-(7-fluoro-2,3-dihydro-1H-inden-1-yl)-N,N-dimethylpyrrolidin-3-amine], the pIC50 in test [1] is 9.13; in test [2], 6.70; in test [3] it was 6.74; in test [4] it was 6.71.

For `CN(C)C(=O)N1CCN(c2ccc([C@H]3CN(C4CCc5cccc(F)c54)C[C@@H]3N(C)C)cc2)CC1` (mixture of isomers) [Example 63, rac-4-{4-[(3S,4R)-4-(dimethylamino)-1-(7-fluoro-2,3-dihydro-1H-inden-1-yl)pyrrolidin-3-yl]phenyl}-N,N-dimethylpiperazine-1-carboxamide], the pIC50 was 8.83 in test [1], 6.72 in test [2], 7.25 in test [3] and 7.14 in test [4].

For `CN(C)[C@@H]1CN(C2CCc3cccc(F)c32)C[C@H]1c1ccc2c(c1)OCO2` (mixture of isomers) [Example 65, rac-(3S,4R)-4-(2H-1,3-benzodioxol-5-yl)-1-(7-fluoro-2,3-dihydro-1H-inden-1-yl)-N,N-dimethylpyrrolidin-3-amine], the pIC50 in test [1] was 8.76; in test [2], 6.51; in test [3], 6.24; in test [4], 6.02.

As to `CN(C)[C@H]1CN(C2CCc3cccc(F)c32)C[C@@H]1c1ccc(-c2cnn(C)c2)cc1` (mixture of isomers) [Example 70, rac-(3R,4S)-1-(7-fluoro-2,3-dihydro-1H-inden-1-yl)-N,N-dimethyl-4-[4-(1-methyl-1H-pyrazol-4-yl)phenyl]pyrrolidin-3-amine], the pIC50 in test [1] is 9.07; in test [2] it was 6.61; in test [3] it was 6.89; in test [4] it was 6.58.

With `CN(C)[C@H]1CN(C2CCc3cccc(F)c32)C[C@@H]1c1ccc(-c2cnn(CC(N)=O)c2)cc1` (mixture of isomers) [Example 71, rac-2-(4-{4-[(3S,4R)-4-(dimethylamino)-1-(7-fluoro-2,3-dihydro-1H-inden-1-yl)pyrrolidin-3-yl]phenyl}-1H-pyrazol-1-yl)acetamide], the pIC50 in test [1] was 8.95; in test [2], 6.81; in test [3] it was 7.28; in test [4], 6.97.

Regarding `CNC(=O)Cn1cc(-c2ccc([C@H]3CN(C4CCc5cccc(F)c54)C[C@@H]3N(C)C)cc2)cn1` (mixture of isomers) [Example 72, rac-2-(4-{4-[(3S,4R)-4-(dimethylamino)-1-(7-fluoro-2,3-dihydro-1H-inden-1-yl)pyrrolidin-3-yl]phenyl}-1H-pyrazol-1-yl)-N-methylacetamide], the pIC50 was 9.03 in test [1], 6.88 in test [2], 7.40 in test [3] and 6.92 in test [4].

Consider `CN(C)[C@@H]1CN(C2CCc3cccc(F)c32)C[C@H]1c1ccc(N2CCN(c3ccncn3)CC2)cc1` (mixture of isomers) [Example 74, rac-(3S,4R)-1-(7-fluoro-2,3-dihydro-1H-inden-1-yl)-N,N-dimethyl-4-{4-[4-(pyrimidin-4-yl)piperazin-1-yl]phenyl}pyrrolidin-3-amine], for which the pIC50 was 9.20 in test [1], 6.44 in test [2], 6.73 in test [3] and 6.97 in test [4].
